The values below come from PMC7140002, “Attenuation of Pseudomonas aeruginosa Quorum Sensing by Natural Products: Virtual Screening, Evaluation and Biomolecular Interactions” (International Journal of Molecular Sciences, 2020).

For assay [1], the target named is T1, LasR (Pseudomonas aeruginosa, UniProt P25084).
T1 construct: LasR-LBD
The assay is described as follows: microscale thermophoresis. In kind it is binding.

For assay [2], the target named is T1, LasR. Put plainly: microscale thermophoresis (no fluorescence signal in thermal shift assay). In kind it is binding. In general terms: MST reads how a fluorescent partner responds to local heating, with and without ligand.

T1 sequence (P25084 1-173): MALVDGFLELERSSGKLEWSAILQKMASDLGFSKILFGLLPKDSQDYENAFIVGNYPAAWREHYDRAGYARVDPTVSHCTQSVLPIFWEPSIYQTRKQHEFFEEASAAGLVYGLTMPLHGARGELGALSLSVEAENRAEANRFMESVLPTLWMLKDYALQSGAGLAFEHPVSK

Broadly, the Kd is the concentration at which binding is half-saturated. At LasR [1], `O=C1C=C(Br)/C(=C/Br)O1` [C30, (Z-)-4-Bromo-5-(bromomethylene)-2(5H)-furanone] showed a Kd of 20.4 ± 16 µM. On to `O=C(/C=C/c1ccc(O)c(O)c1)c1ccc(O)cc1O` [B, Butein], for which, at LasR [2], the Kd turned out to be 3.48 ± 1.63 µM.
